tested on: T1, GCaMP5-expressing T. gondii; design: species or system GCaMP5-expressing Toxoplasma gondii, extracellular; GCaMP5 fluorescence (cytosolic Ca2+) after 100 uM zaprinast in compound-pretreated extracellular parasites, background-subtracted, relative to zaprinast alone; settings: 100 uM zaprinast stimulation; 10 min pretreatment; mean of two replicates; 0.23 h
T1 construct: whole extracellular parasites expressing GCaMP5 Ca2+ sensor
Procedure, shortened: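 Read-out is GCaMP5 calcium fluorescence (ex 485/em 525 nm) taken 4 min after 100 μM zaprinast at 37 °C, following 10 min compound pretreatment at 10 μM in duplicate biological replicates. Values are basal-subtracted fold change versus zaprinast-only controls; parasites held extracellular in Ringer's solution.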

SMILES | fold change in fluorescence relative to zaprinast alone
CNC(=O)c1ccccc1Nc1nc(Nc2cccc(CS(C)(=O)=O)c2)ncc1C [GSK1520489A] | 1.293
NS(=O)(=O)c1cccc(-c2ccc3ncc(N4CCOCC4)nc3c2)c1 [GSK1535721A] | 1.22
COc1ccc(Nc2ncc(C#N)c(Nc3ccccc3C(N)=O)n2)cc1N1CCN(C)CC1 [GSK1558669A] | 1.412
CNC(=O)c1ccccc1Nc1nc(Nc2ccc(N3CCOCC3)cc2)ncc1Cl [GSK1576028A] | 1.198
NC[C@H](CC1CCCCC1)NC(=O)c1cc(Br)c(-c2ccnc3[nH]ccc23)s1 [GSK1581427A] | 1.128
NC[C@H](CC1CCCCC1)NC(=O)c1ccc(-c2ccnc3[nH]ccc23)s1 [GSK1581428A] | 1.197
Nc1ncc(-c2ccc3nccc(-c4ccncc4)c3c2)cc1S(=O)(=O)N1CCOCC1 [GSK1627798A] | 1.041
CC(=O)N1CCN(c2ccc(Nc3nccc(-c4sc(C(C)C)nc4-c4cccc(NS(=O)(=O)c5ccccc5)c4)n3)cn2)CC1 [GSK1645872A] | 0.8017
CC(C)c1nc(-c2cccc(NS(=O)(=O)c3ccccc3)c2)c(-c2ccnc(Nc3ccc4c(c3)CN(C)CC4)n2)s1 [GSK1649598A] | 0.9359
Cc1cc(N2CCC(NS(=O)(=O)c3ccc(F)cc3)CC2)nc(Nc2cccc(C#N)c2)n1 [GSK1653537A] | 0.8395
COc1ccc(S(=O)(=O)NC2CCN(c3cc(C)nc(Nc4cccc(C#N)c4)n3)CC2)cc1 [GSK1653539A] | 0.8764
CC(=O)N1CCN(c2ccc(Nc3nccc(-c4sc(C(C)C)nc4-c4cccc(NS(=O)(=O)c5cccc(Cl)c5)c4)n3)cn2)CC1 [GSK1660437A] | 1.275
Cc1occc1-c1nc(N)c(OC[C@@H](N)Cc2c[nH]c3ccccc23)cc1-c1cc2c(C)[nH]nc2cn1 [GSK1660450B] | 1.179
Cc1cc(N2Cc3ccccc3C2)nc(Nc2ccc(S(=O)(=O)N3CCOCC3)cc2)n1 [GSK1669917A] | 1.107
CN(C)S(=O)(=O)c1cc(-c2ccc3nccc(-c4cccc(S(N)(=O)=O)c4)c3c2)cnc1N [GSK1669921A] | 1.101
Nc1ncc(-c2ccc3nccc(-c4ccncc4)c3c2)cc1S(=O)(=O)N1CCCCC1 [GSK1693850A] | 0.1427
CCCN1CCC(Oc2cc(Nc3nc(Nc4cccc(F)c4C(N)=O)c4cc[nH]c4n3)c(OC)cc2Cl)CC1 [GSK1713088A] | 1.364
CC(C)c1nc(-c2cccc(NS(=O)(=O)c3c(F)cccc3F)c2)c(-c2ccnc(Nc3ccc(N4CCOCC4)nc3)n2)s1 [GSK1723980B] | 0.6316
CC(C)c1nc(-c2ccc(F)c(NS(=O)(=O)c3c(F)cccc3F)c2)c(-c2ccnc(Nc3ccc(N4CCOCC4)nc3)n2)s1 [GSK1804250A] | 1.361
COc1cc(N2CCN(C(C)C)CC2)ccc1Nc1nc(Nc2cccc(F)c2C(=O)O)c2cc[nH]c2n1 [GSK1819799A] | 1.115
Cc1ccc(NC(=O)c2cccc(N3CCCCC3)c2)cc1-c1ccc(C(=O)NCC2CC2)cc1 [GSK1917008A] | 1.193
CC(C)c1nc(-c2cccc(NS(=O)(=O)c3c(F)cccc3F)c2F)c(-c2ccnc(Nc3ccc(N4CCOCC4)nc3)n2)s1 [GSK2008607A] | 1.572

SMILES | fold change in fluorescence relative to zaprinast alone
COc1cc2c(cc1Nc1nc(Nc3ccsc3C(N)=O)c3cc[nH]c3n1)N(C(=O)CN(C)C)CCC2 [GSK2110236A] | 1.302
N#Cc1ccc(CCNc2nccc(-c3cccc(CN4CCNCC4)c3)n2)cc1 [GSK2137462A] | 0.3754
COc1cc2c(cc1Nc1nc(Nc3ccsc3C(N)=O)c3cc[nH]c3n1)N(C(=O)CN(C)C)CCC2(C)C [GSK2163632A] | 1.131
O=c1[nH]ccc2nc(N[C@@H]3CCCNC3)nc(Nc3ccc(S(=O)(=O)N4CCOCC4)cc3)c12 [GSK2177277A] | 1.049
O=c1[nH]ccc2nc(N[C@@H]3CCNC3)nc(Nc3ccc4c(c3)S(=O)(=O)CC4)c12 [GSK2181306A] | 1.236
COc1cc2c(cc1Nc1nc(N3CCc4ccccc43)c3cc[nH]c3n1)N(C(=O)CN(C)C)CC2 [GSK2186269A] | 1.113
O=c1[nH]ccc2nc(N[C@@H]3CCNC3)nc(Nc3cc(Cl)cc(Cl)c3)c12 [GSK2188764A (Enh2)] | 2.366
Nc1n[nH]c2cc(-c3ccccn3)ccc12 [GSK2189892A] | 1.03
Nc1cccc(-c2ccc3c(N)n[nH]c3c2)n1 [GSK2192730A] | 1.059
Nc1cccc(-c2ccc3c(N)n[nH]c3c2)c1 [GSK2193613A] | 0.7898
Cc1cccc(Nc2nc(N[C@H]3CCNC3)ncc2C(N)=O)c1 [GSK2197149A] | 1.037
CNc1nccc(-c2ccc3c(N)n[nH]c3c2)n1 [GSK2206003A] | 1.243
COc1cc(C)c(NC(=O)CN(C)C)cc1Nc1nc(Nc2cccc(F)c2C(N)=O)c2cc[nH]c2n1 [GSK2213727A] | 1.59
CN(C)c1cc(-c2ccc3c(N)n[nH]c3c2)nc(N)n1 [GSK2219329A] | 0.9361
CNC(=O)c1ncccc1Nc1nc(Nc2cc3c(cc2OC)CCCN3C(=O)CN(C)C)nc2[nH]ccc12 [GSK2220400A] | 1.127
CC(C)Nc1cc(-c2ccc3c(N)n[nH]c3c2)nc(N)n1 [GSK2221681A] | 1.173
Nc1nc(Nc2ccccc2)cc(-c2ccc3c(N)n[nH]c3c2)n1 [GSK2225749A] | 1.117
Nc1nc(-c2ccc3c(N)n[nH]c3c2)cc(N2CCCC2)n1 [GSK2227430A] | 1.158
Nc1nc(-c2ccc3c(N)n[nH]c3c2)cc(N2CCCCC2)n1 [GSK2228768A] | 0.9677
O=c1[nH]cc(-c2ccc(N3CCOCC3)cc2)c2sc(-c3cn[nH]c3)cc12 [GSK2276055A] | 0.8496
C[C@@H]1CC[C@@H](C(=O)Nc2ccccc2)CN1c1cc(-c2ccc3c(N)n[nH]c3c2)nc(N)n1 [GSK2286062A] | 0.9223
Nc1nc(-c2ccc3c(N)n[nH]c3c2)cc(N2CCCC(NC(=O)c3ccccc3)C2)n1 (stereo not shown) [GSK2286775B] | 1.202

SMILES | fold change in fluorescence relative to zaprinast alone
C[C@@H]1CC[C@H](C(=O)NC2CCCCC2)CN1c1cc(-c2ccc3c(N)n[nH]c3c2)nc(N)n1 [GSK2291363A] | 1.384
O=c1cc(N2CCOCC2)nc2n(Cc3cccc(C(F)(F)F)c3)ccn12 [GSK2297543A] | 0.8956
O=c1cc(N2CCOCC2)nc2n(Cc3cccc(Cl)c3Cl)c3ccccc3n12 [GSK2299009A] | 1.093
Cc1c(Cn2c3ccccc3n3c(=O)cc(N4CCOCC4)nc23)cccc1C(F)(F)F [GSK2306394A] | 0.7248
Cc1nn2c(=O)cc(N3CCOC(C)C3)nc2n1Cc1cccc(Cl)c1Cl (stereo not shown) [GSK2373693A] | 0.7316
CNc1nc(-c2ccc3c(N)n[nH]c3c2)cc(N2C[C@@H](C(=O)NC3CCCCC3)OC[C@H]2C)n1 [GSK2375584A] | 1.379
Nc1nccc2scc(-c3ccc4c(c3)CCN4C(=O)Cc3ccccc3)c12 [GSK2576924A] | 0.9278
Nc1nccc2scc(-c3ccc4c(c3)CCN4C(=O)Cc3cc(F)ccc3F)c12 [GSK2587663A] | 0.7245
Nc1ncc(-c2ccncc2)c2scc(-c3ccc4c(c3)CCN4C(=O)Cc3ccccc3)c12 [GSK2592465A] | 1.243
Nc1ncc(-c2cn[nH]c2)c2scc(-c3ccc4c(c3)CCN4C(=O)Cc3ccccc3)c12 [GSK2593067A] | 1.414
Cn1cc(-c2cnc(N)c3c(-c4ccc5c(c4)CCN5C(=O)Cc4ccccc4)csc23)cn1 [GSK2593074A] | 1.463
Cc1ccccc1CC(=O)N1CCc2cc(-c3cn(C)c4ncnc(N)c34)ccc21 [GSK2603346A] | 1.278
Cn1cc(-c2ccc3c(c2)CCN3C(=O)Cc2cccc(F)c2)c2c(N)ncnc21 [GSK2603358A] | 1.56
Cn1cc(-c2ccc3c(c2)CCN3C(=O)Cc2cccc(Cl)c2)c2c(N)ncnc21 [GSK2606590A] | 1.488
Cn1cc(-c2ccc3c(c2)CCN3C(=O)Cc2ccccc2Cl)c2c(N)ncnc21 [GSK2608885A] | 1.437
COc1cccc(CC(=O)N2CCc3cc(-c4cn(C)c5ncnc(N)c45)ccc32)c1 [GSK2608899A] | 0.9364
Cc1ccc(CC(=O)N2CCc3cc(-c4cn(C)c5ncnc(N)c45)ccc32)cc1 [GSK2634758A] | 1.068
Nc1ncnc2occ(-c3ccc4c(c3)CCN4C(=O)Cc3cc(F)ccc3F)c12 [GSK2645446A] | 0.8883
c1ccc(Cn2cnc3cc(Nc4ncnc5ccccc45)ccc32)cc1 [GW272142A] | 1.177
NS(=O)(=O)c1cccc(N/C=C2\C(=O)Nc3ccccc32)c1 [GW275616X] | 0.9797

From publication PMC4850295, “Using a Genetically Encoded Sensor to Identify Inhibitors of Toxoplasma gondii Ca^2+ Signaling” (The Journal of Biological Chemistry, 2016)
